Measurements published in paper PMC7265341, “Quantifying CDK inhibitor selectivity in live cells” (Nature Communications, 2020).
Where two headings read alike, the source gives them in different places.

Legend:
[1] = molecular target: CDK8/Cyclin C (Homo sapiens, UniProt P49336); assay: NanoBRET live-cell target engagement, NanoLuc-CDK8/Cyclin C in HEK-293; type: binding; conditions: CDK8/C, read-out: Inhibition at 10µM (%)
[2] = molecular target: CDK6/Cyclin D1 (Homo sapiens, UniProt Q00534); assay: NanoBRET live-cell target engagement, NanoLuc-CDK6/Cyclin D1 in HEK-293; type: binding; conditions: CDK6/D1; for IC50: read-out: IC50; for inhibition at 10 µM: read-out: Inhibition at 10µM (%)
[3] = molecular target: CDK7 (Homo sapiens, UniProt P50613); assay: NanoBRET live-cell target engagement, NanoLuc-CDK7 in HEK-293; type: binding; conditions: CDK7; for IC50: read-out: IC50; for inhibition at 10 µM: read-out: Inhibition at 10µM (%)
[4] = molecular target: CDK17/Cyclin Y (Homo sapiens, UniProt Q00537); assay: NanoBRET live-cell target engagement, CDK17-NanoLuc/Cyclin Y in HEK-293; type: binding; conditions: CDK17/Y; for IC50: read-out: IC50; for inhibition at 10 µM: read-out: Inhibition at 10µM (%)
[5] = molecular target: CDK19/Cyclin C (Homo sapiens, UniProt Q9BWU1); assay: NanoBRET live-cell target engagement, NanoLuc-CDK19/Cyclin C in HEK-293; conditions: read-out: Inhibition at 10µM (%), CDK19/C
[6] = molecular target: CDK4/Cyclin D1 (Homo sapiens, UniProt P11802); assay: NanoBRET live-cell target engagement, NanoLuc-CDK4/Cyclin D1 in HEK-293; type: binding; conditions: CDK4/D1; for IC50: read-out: IC50; for inhibition at 10 µM: read-out: Inhibition at 10µM (%)
[7] = molecular target: CDK12/Cyclin K (Homo sapiens, UniProt Q9NYV4); assay: NanoBRET live-cell target engagement, CDK12-NanoLuc/Cyclin K in HEK-293; type: binding; conditions: CDK12/K, read-out: Inhibition at 10µM (%)
[8] = molecular target: CDK13/Cyclin K (Homo sapiens, UniProt Q14004); assay: NanoBRET live-cell target engagement, CDK13-NanoLuc/Cyclin K in HEK-293; type: binding; conditions: CDK13/K, read-out: Inhibition at 10µM (%)
[9] = molecular target: CDK11B/Cyclin L2 (Homo sapiens, UniProt P21127); assay: NanoBRET live-cell target engagement, CDK11B-NanoLuc/Cyclin L2 in HEK-293; type: binding; conditions: CDK11b/L2, read-out: Inhibition at 10µM (%)
[10] = molecular target: CDK14/Cyclin Y (Homo sapiens, UniProt O94921); assay: NanoBRET live-cell target engagement, CDK14-NanoLuc/Cyclin Y in HEK-293; type: binding; conditions: CDK14/Y; for IC50: read-out: IC50; for inhibition at 10 µM: read-out: Inhibition at 10µM (%)
[11] = molecular target: CDK1/Cyclin E1 (Homo sapiens, UniProt P06493); assay: NanoBRET live-cell target engagement, CDK1-NanoLuc/Cyclin E1 in HEK-293; type: binding; conditions: CDK1/E1, read-out: Inhibition at 10µM (%)
[12] = molecular target: CDK5/CDK5R1 (Homo sapiens, UniProt Q00535); assay: NanoBRET live-cell target engagement, CDK5-NanoLuc/CDK5R1 in HEK-293; type: binding; conditions: CDK5/CDK5R1, read-out: Inhibition at 10µM (%)
[13] = molecular target: CDK9/Cyclin K (Homo sapiens, UniProt P50750); assay: NanoBRET live-cell target engagement, NanoLuc-CDK9/Cyclin K in HEK-293; type: binding; conditions: CDK9/K, read-out: Inhibition at 10µM (%)
[14] = molecular target: CDK15/Cyclin Y (Homo sapiens, UniProt Q96Q40); assay: NanoBRET live-cell target engagement, NanoLuc-CDK15/Cyclin Y in HEK-293; type: binding; conditions: CDK15/Y, read-out: Inhibition at 10µM (%)
[15] = molecular target: T1, CDK11A/Cyclin L2 (Homo sapiens, UniProt Q9UQ88); assay: NanoBRET live-cell target engagement, CDK11A-NanoLuc/Cyclin L2 in HEK-293; type: binding; conditions: CDK11a/L2, read-out: Inhibition at 10µM (%)
T1 sequence (Q9UQ88 1-783): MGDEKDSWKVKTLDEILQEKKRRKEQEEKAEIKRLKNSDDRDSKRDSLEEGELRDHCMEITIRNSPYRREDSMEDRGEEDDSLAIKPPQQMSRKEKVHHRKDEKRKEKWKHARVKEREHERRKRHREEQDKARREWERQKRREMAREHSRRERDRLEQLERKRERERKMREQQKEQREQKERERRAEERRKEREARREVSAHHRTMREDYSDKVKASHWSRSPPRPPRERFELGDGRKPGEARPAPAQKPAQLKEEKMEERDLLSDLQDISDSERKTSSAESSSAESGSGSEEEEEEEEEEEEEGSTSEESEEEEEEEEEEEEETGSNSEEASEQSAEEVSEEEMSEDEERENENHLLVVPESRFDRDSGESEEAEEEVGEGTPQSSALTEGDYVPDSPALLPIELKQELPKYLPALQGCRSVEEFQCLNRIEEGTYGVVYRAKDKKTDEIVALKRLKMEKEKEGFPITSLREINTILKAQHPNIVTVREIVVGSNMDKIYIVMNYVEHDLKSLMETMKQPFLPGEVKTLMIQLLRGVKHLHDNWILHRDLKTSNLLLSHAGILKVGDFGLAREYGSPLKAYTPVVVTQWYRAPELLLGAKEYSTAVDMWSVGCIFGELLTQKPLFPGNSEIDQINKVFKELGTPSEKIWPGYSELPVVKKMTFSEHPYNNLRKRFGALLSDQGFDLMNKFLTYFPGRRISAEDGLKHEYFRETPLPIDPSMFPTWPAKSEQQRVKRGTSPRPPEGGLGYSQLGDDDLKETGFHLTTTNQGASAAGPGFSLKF

[16] = molecular target: CDK20/Cyclin H (Homo sapiens, UniProt Q8IZL9); assay: NanoBRET live-cell target engagement, NanoLuc-CDK20/Cyclin H in HEK-293; type: binding; conditions: CDK20/H, read-out: Inhibition at 10µM (%)
[17] = molecular target: CDK16/Cyclin Y (Homo sapiens, UniProt Q00536); assay: NanoBRET live-cell target engagement, CDK16-NanoLuc/Cyclin Y in HEK-293; type: binding; conditions: CDK16/Y; for IC50: read-out: IC50; for inhibition at 10 µM: read-out: Inhibition at 10µM (%)
[18] = molecular target: CDK10/Cyclin L2 (Homo sapiens, UniProt Q15131); assay: NanoBRET live-cell target engagement, CDK10-NanoLuc/Cyclin L2 in HEK-293; conditions: read-out: Inhibition at 10µM (%), CDK10/L2
[19] = molecular target: CDK18/Cyclin Y (Homo sapiens, UniProt Q07002); assay: NanoBRET live-cell target engagement, CDK18-NanoLuc/Cyclin Y in HEK-293; type: binding; conditions: CDK18/Y; for IC50: read-out: IC50; for inhibition at 10 µM: read-out: Inhibition at 10µM (%)
Chain of CDK18/Cyclin Y (Q07002 whole entry): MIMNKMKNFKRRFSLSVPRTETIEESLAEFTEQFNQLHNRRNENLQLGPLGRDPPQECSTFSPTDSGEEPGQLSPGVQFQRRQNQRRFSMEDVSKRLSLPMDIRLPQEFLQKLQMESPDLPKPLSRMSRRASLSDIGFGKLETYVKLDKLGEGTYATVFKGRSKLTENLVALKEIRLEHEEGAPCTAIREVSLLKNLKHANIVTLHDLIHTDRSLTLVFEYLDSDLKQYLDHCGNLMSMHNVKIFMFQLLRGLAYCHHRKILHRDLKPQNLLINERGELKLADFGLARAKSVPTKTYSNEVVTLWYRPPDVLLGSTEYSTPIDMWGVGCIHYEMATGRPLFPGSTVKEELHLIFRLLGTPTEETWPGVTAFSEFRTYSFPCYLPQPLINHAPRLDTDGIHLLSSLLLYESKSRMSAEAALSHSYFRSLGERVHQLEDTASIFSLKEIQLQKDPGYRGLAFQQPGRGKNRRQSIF
Chain of CDK18/Cyclin Y (Q8ND76 whole entry partner): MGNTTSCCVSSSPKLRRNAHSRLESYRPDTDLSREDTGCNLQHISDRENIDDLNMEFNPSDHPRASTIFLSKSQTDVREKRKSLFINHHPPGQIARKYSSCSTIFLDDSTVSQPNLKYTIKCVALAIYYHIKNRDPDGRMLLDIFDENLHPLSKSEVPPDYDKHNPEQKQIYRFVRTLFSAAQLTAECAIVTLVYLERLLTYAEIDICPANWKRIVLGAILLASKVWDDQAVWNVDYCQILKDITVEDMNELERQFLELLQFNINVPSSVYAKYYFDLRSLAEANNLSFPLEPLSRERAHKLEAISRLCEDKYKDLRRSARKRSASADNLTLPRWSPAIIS

Chain of CDK16/Cyclin Y (Q00536 whole entry): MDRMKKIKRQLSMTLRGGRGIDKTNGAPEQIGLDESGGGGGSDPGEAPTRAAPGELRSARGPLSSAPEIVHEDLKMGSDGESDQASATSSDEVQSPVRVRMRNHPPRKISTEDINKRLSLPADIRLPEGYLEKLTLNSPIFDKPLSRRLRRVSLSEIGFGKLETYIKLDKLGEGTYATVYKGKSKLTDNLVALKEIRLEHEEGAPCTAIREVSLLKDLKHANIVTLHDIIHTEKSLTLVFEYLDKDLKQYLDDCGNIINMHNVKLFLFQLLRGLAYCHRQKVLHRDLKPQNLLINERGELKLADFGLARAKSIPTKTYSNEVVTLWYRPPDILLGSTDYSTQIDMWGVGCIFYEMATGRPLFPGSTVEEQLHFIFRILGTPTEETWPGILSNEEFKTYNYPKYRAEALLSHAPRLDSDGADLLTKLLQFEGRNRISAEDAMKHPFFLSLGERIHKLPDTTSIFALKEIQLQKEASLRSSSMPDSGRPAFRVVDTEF
Chain of CDK16/Cyclin Y (Q8ND76 whole entry partner): as the sequence (Q8ND76 whole entry partner) above
Chain of CDK9/Cyclin K (P50750 whole entry): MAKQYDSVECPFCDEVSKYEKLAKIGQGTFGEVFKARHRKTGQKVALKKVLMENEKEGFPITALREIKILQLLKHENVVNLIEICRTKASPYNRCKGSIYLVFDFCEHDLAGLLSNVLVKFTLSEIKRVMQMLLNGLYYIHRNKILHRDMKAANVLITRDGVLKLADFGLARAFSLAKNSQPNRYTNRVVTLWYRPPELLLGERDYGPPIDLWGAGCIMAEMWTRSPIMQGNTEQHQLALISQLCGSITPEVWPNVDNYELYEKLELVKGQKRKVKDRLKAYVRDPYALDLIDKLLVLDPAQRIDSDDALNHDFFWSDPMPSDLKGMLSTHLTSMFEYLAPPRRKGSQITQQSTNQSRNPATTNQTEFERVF
Chain of CDK9/Cyclin K (O75909 whole entry partner): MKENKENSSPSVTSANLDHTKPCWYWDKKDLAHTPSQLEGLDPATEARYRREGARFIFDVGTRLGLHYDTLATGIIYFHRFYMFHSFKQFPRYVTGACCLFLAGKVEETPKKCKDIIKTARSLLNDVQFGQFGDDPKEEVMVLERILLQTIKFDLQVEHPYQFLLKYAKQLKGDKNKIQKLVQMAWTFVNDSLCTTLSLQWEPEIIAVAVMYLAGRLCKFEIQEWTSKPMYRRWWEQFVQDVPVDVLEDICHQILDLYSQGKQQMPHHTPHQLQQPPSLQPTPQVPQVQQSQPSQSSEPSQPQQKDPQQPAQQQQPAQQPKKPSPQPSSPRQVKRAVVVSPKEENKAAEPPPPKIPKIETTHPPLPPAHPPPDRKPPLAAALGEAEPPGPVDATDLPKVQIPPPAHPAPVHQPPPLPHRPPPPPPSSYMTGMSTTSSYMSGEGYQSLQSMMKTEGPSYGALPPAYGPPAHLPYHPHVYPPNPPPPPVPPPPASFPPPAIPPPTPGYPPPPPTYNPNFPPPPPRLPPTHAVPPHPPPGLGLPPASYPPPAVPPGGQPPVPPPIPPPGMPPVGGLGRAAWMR
Chain of CDK8/Cyclin C (P49336 whole entry): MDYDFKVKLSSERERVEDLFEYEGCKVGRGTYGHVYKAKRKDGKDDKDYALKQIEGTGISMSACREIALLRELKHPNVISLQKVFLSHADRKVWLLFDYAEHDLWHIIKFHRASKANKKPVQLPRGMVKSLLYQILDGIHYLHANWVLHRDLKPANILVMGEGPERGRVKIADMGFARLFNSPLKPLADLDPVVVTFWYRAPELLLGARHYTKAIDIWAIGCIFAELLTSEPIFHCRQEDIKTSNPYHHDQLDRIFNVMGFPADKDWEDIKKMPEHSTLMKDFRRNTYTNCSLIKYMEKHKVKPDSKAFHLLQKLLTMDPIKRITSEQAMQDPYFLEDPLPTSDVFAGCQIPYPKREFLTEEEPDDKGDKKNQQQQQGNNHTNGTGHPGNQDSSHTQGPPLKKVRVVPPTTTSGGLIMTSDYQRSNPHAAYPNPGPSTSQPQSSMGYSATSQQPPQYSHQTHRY
Chain of CDK8/Cyclin C (P24863 whole entry partner): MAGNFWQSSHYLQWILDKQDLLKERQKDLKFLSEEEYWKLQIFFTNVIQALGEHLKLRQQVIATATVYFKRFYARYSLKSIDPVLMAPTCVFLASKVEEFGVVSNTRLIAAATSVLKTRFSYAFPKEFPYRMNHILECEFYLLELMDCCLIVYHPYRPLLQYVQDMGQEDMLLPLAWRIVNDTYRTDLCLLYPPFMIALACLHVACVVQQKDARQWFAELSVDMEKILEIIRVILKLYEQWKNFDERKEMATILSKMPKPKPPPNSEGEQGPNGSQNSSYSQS
Chain of CDK7 (P50613 whole entry): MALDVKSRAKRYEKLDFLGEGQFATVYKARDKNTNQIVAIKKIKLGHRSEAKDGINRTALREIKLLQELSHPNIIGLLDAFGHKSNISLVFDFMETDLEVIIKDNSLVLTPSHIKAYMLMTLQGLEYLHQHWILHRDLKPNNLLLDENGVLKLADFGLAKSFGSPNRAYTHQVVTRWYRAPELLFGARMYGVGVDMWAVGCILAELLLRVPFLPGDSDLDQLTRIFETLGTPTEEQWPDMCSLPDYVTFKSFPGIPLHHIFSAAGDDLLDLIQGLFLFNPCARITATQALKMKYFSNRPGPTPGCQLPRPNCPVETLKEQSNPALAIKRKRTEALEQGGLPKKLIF
Chain of CDK5/CDK5R1 (Q00535 whole entry): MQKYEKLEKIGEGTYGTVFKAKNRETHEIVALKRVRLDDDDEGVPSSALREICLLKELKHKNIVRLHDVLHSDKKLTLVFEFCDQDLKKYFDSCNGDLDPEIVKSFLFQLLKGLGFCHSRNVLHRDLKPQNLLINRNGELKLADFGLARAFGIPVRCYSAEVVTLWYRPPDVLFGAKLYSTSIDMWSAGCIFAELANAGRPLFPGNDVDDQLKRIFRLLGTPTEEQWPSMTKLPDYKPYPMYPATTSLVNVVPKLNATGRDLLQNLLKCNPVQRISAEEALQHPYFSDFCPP
Chain of CDK5/CDK5R1 (Q15078 whole entry partner): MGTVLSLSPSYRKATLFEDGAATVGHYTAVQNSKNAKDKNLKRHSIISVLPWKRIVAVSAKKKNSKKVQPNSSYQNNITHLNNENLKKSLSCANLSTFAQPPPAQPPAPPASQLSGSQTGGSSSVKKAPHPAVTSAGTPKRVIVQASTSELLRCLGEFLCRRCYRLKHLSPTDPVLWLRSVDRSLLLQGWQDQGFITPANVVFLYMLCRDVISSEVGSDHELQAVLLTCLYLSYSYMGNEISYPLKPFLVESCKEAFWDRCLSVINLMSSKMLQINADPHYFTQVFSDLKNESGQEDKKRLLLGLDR
Chain of CDK19/Cyclin C (Q9BWU1 whole entry): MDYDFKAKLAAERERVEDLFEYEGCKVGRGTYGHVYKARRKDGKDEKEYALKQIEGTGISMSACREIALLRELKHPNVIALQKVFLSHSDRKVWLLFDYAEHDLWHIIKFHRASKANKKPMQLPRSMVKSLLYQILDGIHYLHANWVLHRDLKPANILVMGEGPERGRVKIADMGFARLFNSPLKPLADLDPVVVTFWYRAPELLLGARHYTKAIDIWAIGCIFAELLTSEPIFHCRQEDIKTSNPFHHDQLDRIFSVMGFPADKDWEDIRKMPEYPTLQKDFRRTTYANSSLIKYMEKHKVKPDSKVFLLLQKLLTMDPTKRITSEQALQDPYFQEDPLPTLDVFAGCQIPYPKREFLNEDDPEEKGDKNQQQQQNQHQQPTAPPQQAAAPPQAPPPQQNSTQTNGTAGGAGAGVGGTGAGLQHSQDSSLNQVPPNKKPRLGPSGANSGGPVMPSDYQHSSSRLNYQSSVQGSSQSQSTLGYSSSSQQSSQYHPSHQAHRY
Chain of CDK19/Cyclin C (P24863 whole entry partner): as the sequence (P24863 whole entry partner) above
Chain of CDK10/Cyclin L2 (Q15131 whole entry): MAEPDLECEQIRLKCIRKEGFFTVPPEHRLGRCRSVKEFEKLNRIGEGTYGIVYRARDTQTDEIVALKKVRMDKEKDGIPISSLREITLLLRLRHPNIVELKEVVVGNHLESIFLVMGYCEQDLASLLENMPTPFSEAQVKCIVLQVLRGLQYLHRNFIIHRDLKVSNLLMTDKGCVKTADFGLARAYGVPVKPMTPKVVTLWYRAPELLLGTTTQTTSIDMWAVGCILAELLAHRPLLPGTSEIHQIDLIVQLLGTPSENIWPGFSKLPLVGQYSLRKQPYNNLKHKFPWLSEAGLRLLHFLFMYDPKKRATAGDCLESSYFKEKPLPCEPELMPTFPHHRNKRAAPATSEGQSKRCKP

CN1CCN(c2ccc(Nc3ncc4cc(C#N)c(=O)n(C5CCCC5)c4n3)cc2)CC1 [ON123300]
inhibition at 10 µM ([1]; average): 8.5% | inhibition at 10 µM ([1]; experiment 1): 6.2% | inhibition at 10 µM ([1]; experiment 2): 10.8% | IC50 ([2]; average (± SEM where n=3)): 4 ± 1 nM | inhibition at 10 µM ([2]; average): 97.7% | IC50 ([2]; experiment 1): 4.8 nM | inhibition at 10 µM ([2]; experiment 1): 96.9% | IC50 ([2]; experiment 2): 3.4 nM | inhibition at 10 µM ([2]; experiment 2): 98.5% | IC50 ([2]; experiment 3): 3 nM | IC50 ([3]; average (± SEM where n=3)): 143 ± 4 nM | inhibition at 10 µM ([3]; average): 28.4% | IC50 ([3]; experiment 1): 140 nM | inhibition at 10 µM ([3]; experiment 1): 28.2% | IC50 ([3]; experiment 2): 150 nM | inhibition at 10 µM ([3]; experiment 2): 28.5% | IC50 ([3]; experiment 3): 139 nM | IC50 ([4]; average (± SEM where n=3)): 40 ± 4 nM | inhibition at 10 µM ([4]; average): 75.5% | IC50 ([4]; experiment 1): 32 nM | inhibition at 10 µM ([4]; experiment 1): 72.1% | IC50 ([4]; experiment 2): 43 nM | inhibition at 10 µM ([4]; experiment 2): 78.9% | IC50 ([4]; experiment 3): 44 nM | inhibition at 10 µM ([5]; average): -0.3% | inhibition at 10 µM ([5]; experiment 1): 6.6% | inhibition at 10 µM ([5]; experiment 2): -7.2% | IC50 ([6]; average (± SEM where n=3)): 9 ± 3 nM | inhibition at 10 µM ([6]; average): 95.1% | IC50 ([6]; experiment 1): 6.9 nM | inhibition at 10 µM ([6]; experiment 1): 95.8% | IC50 ([6]; experiment 2): 5 nM | inhibition at 10 µM ([6]; experiment 2): 94.3% | IC50 ([6]; experiment 3): 15 nM | inhibition at 10 µM ([7]; average): -3.9% | inhibition at 10 µM ([7]; experiment 1): -2.7% | inhibition at 10 µM ([7]; experiment 2): -5% | inhibition at 10 µM ([8]; average): -15.1% | inhibition at 10 µM ([8]; experiment 1): -1% | inhibition at 10 µM ([8]; experiment 2): -29.2% | inhibition at 10 µM ([9]; average): 36.8% | inhibition at 10 µM ([9]; experiment 1): 11.7% | inhibition at 10 µM ([9]; experiment 2): 61.9% | IC50 ([10]; average (± SEM where n=3)): 120 ± 60 nM | inhibition at 10 µM ([10]; average): 45.4% | IC50 ([10]; experiment 1): 34 nM | inhibition at 10 µM ([10]; experiment 1): 56.3% | IC50 ([10]; experiment 2): 220 nM | inhibition at 10 µM ([10]; experiment 2): 34.4% | IC50 ([10]; experiment 3): 99 nM | inhibition at 10 µM ([11]; average): 18.6% | inhibition at 10 µM ([11]; experiment 1): 20.1% | inhibition at 10 µM ([11]; experiment 2): 17.1% | inhibition at 10 µM ([12]; average): 4.3% | inhibition at 10 µM ([12]; experiment 1): 8% | inhibition at 10 µM ([12]; experiment 2): 0.554% | inhibition at 10 µM ([13]; average): 34.2% | inhibition at 10 µM ([13]; experiment 1): 32% | inhibition at 10 µM ([13]; experiment 2): 36.4% | inhibition at 10 µM ([14]; average): 29.2% | inhibition at 10 µM ([14]; experiment 1): 36% | inhibition at 10 µM ([14]; experiment 2): 22.5% | inhibition at 10 µM ([15]; average): 12.6% | inhibition at 10 µM ([15]; experiment 1): 15.7% | inhibition at 10 µM ([15]; experiment 2): 9.5% | inhibition at 10 µM ([16]; experiment 1): 23.1% | inhibition at 10 µM ([16]; experiment 2): 26.8% | IC50 ([17]; average (± SEM where n=3)): 39 ± 8 nM | IC50 ([17]; experiment 1): 23 nM | inhibition at 10 µM ([17]; experiment 1): 70.3% | IC50 ([17]; experiment 2): 47 nM | inhibition at 10 µM ([17]; experiment 2): 78.8% | IC50 ([17]; experiment 3): 48 nM | inhibition at 10 µM ([18]; average): 4.6% | inhibition at 10 µM ([18]; experiment 1): 8.8% | inhibition at 10 µM ([18]; experiment 2): 0.3% | IC50 ([19]; average (± SEM where n=3)): 240 ± 50 nM | inhibition at 10 µM ([19]; average): 38.8% | IC50 ([19]; experiment 1): 283 nM | inhibition at 10 µM ([19]; experiment 1): 27.5% | IC50 ([19]; experiment 2): 300 nM | inhibition at 10 µM ([19]; experiment 2): 50% | IC50 ([19]; experiment 3): 150 nM
